Source: patent publication US10130693B2, “Peptides, combination of peptides and scaffolds for use in immunotherapeutic treatment of various cancers” (Immatics Biotechnologies GmbH, priority 2015, dated 2018)

What follows are substances tested on HLA-A*24 (assay: MHC binding assay, UV-ligand exchange with beta2m ELISA (exchange yield), HLA-A*24). Conditions: binding to HLA-A*24, UV-ligand exchange.
Design: species or system human
From the text: Candidate peptides for T cell based therapies according to the present invention were further tested for their MHC binding capacity (affinity). The individual peptide-MHC complexes were produced by UV-ligand exchange, where a UV-sensitive peptide is cleaved upon UV-irradiation, and exchanged with the peptide of interest as analyzed. Only peptide candidates that can effectively bind and stabilize the peptide-receptive MHC molecules prevent dissociation of the MHC complexes. To determine the yield of the exchange reaction, an ELISA was performed based on the detection of the light chain (β2m) of stabilized MHC complexes. The assay was performed as generally described in Rodenko et al. (Rodenko et al., 2006).
96 well MAXISorp plates (NUNC) were coated over night with 2 ug/ml streptavidin in PBS at room temperature, washed 4× and blocked for 1 h at 37° C. in 2% BSA containing blocking buffer. […] Peptide-MHC monomers of the UV-exchange reaction were diluted 100 fold in blocking buffer. Samples were incubated for 1 h at 37° C., washed four times, incubated with 2 ug/ml HRP conjugated anti-β2m for 1h at 37° C., washed again and detected with TMB solution that is stopped with […]. Absorption was measured at 450 nm. Candidate peptides that show a high exchange yield (preferably higher than 50%, most preferred higher than 75%) are generally preferred for a generation and production of antibodies or fragments thereof, and/or T cell receptors or fragments thereof, as they show sufficient avidity to the MHC molecules and prevent dissociation of the MHC complexes.

| Peptide exchange (MHC class I binding score, peptide exchange yield) | Substance |
| --- | --- |
| ++++ (>=75% = ++++) | 97 (TYTFLKETF; listed as Homo sapiens) [compound 97] |
| +++ (50%-75% = +++) | 100 (VYIESRIGTSTSF; listed as Homo sapiens) [compound 100] |
| +++ (50%-75% = +++) | 108 (PYLVVIHTL; listed as Homo sapiens) [compound 108] |
| +++ (50%-75% = +++) | 113 (IYSFHTLSF; listed as Homo sapiens) [compound 113] |
| ++++ (>=75% = ++++) | 116 (AYVIAVHLF; listed as Homo sapiens) [compound 116] |
| +++ (50%-75% = +++) | 117 (IYLSDLTYI; listed as Homo sapiens) [compound 117] |
| +++ (50%-75% = +++) | 118 (KYLNSVQYI; listed as Homo sapiens) [compound 118] |
| +++ (50%-75% = +++) | 121 (RYGLPAAWSTF; listed as Homo sapiens) [compound 121] |
| ++ (20%-49% = ++) | 123 (VYTPVLEHL; listed as Homo sapiens) [compound 123] |
| + (<20% = +) | 124 (TYKDYVDLF; listed as Homo sapiens) [compound 124] |
| +++ (50%-75% = +++) | 125 (VFSRDFGLLVF; listed as Homo sapiens) [compound 125] |
| +++ (50%-75% = +++) | 127 (QYFTGNPLF; listed as Homo sapiens) [compound 127] |
| ++++ (>=75% = ++++) | 128 (VYPFDWQYI; listed as Homo sapiens) [compound 128] |
| ++++ (>=75% = ++++) | 129 (KYIDYLMTW; listed as Homo sapiens) [compound 129] |
| +++ (50%-75% = +++) | 131 (EYLDRIGQLFF; listed as Homo sapiens) [compound 131] |
| +++ (50%-75% = +++) | 133 (KYLEDMKTYF; listed as Homo sapiens) [compound 133] |
| +++ (50%-75% = +++) | 134 (AYIPTPIYF; listed as Homo sapiens) [compound 134] |
| ++++ (>=75% = ++++) | 135 (VYEAMVPLF; listed as Homo sapiens) [compound 135] |
| +++ (50%-75% = +++) | 136 (IYPEWPVVFF; listed as Homo sapiens) [compound 136] |
| ++ (20%-49% = ++) | 138 (VYNAVSTSF; listed as Homo sapiens) [compound 138] |
| +++ (50%-75% = +++) | 141 (SYNGHLTIWF; listed as Homo sapiens) [compound 141] |
| +++ (50%-75% = +++) | 143 (KYIFQLNEI; listed as Homo sapiens) [compound 143] |
| +++ (50%-75% = +++) | 145 (VYALKVRTI; listed as Homo sapiens) [compound 145] |
| +++ (50%-75% = +++) | 146 (NYYERIHAL; listed as Homo sapiens) [compound 146] |
| +++ (50%-75% = +++) | 147 (LYLAFPLAF; listed as Homo sapiens) [compound 147] |

| Peptide exchange (MHC class I binding score, peptide exchange yield) | Substance |
| --- | --- |
| ++++ (>=75% = ++++) | 148 (SYGTVSQIF; listed as Homo sapiens) [compound 148] |
| ++++ (>=75% = ++++) | 149 (SYGTVSQI; listed as Homo sapiens) [compound 149] |
| ++ (20%-49% = ++) | 152 (KFFDDLGDELLF; listed as Homo sapiens) [compound 152] |
| ++++ (>=75% = ++++) | 153 (VYVPFGGKSMITF; listed as Homo sapiens) [compound 153] |
| ++++ (>=75% = ++++) | 154 (VYGVPTPHF; listed as Homo sapiens) [compound 154] |
| +++ (50%-75% = +++) | 159 (IYEETRGVL; listed as Homo sapiens) [compound 159] |
| +++ (50%-75% = +++) | 165 (EYFTPLLSGQF; listed as Homo sapiens) [compound 165] |
| +++ (50%-75% = +++) | 169 (NYITGKGDVF; listed as Homo sapiens) [compound 169] |
| ++++ (>=75% = ++++) | 173 (QYLEKYYNL; listed as Homo sapiens) [compound 173] |
| +++ (50%-75% = +++) | 176 (FYINGQYQF; listed as Homo sapiens) [compound 176] |
| +++ (50%-75% = +++) | 178 (NYSSAVQKF; listed as Homo sapiens) [compound 178] |
| +++ (50%-75% = +++) | 183 (PYLQDVPRI; listed as Homo sapiens) [compound 183] |
| ++++ (>=75% = ++++) | 184 (IYSVGAFENF; listed as Homo sapiens) [compound 184] |
| ++++ (>=75% = ++++) | 185 (QYLVHVNDL; listed as Homo sapiens) [compound 185] |
| ++++ (>=75% = ++++) | 187 (AYAANVHYL; listed as Homo sapiens) [compound 187] |
| +++ (50%-75% = +++) | 188 (GYKTFFNEF; listed as Homo sapiens) [compound 188] |
| +++ (50%-75% = +++) | 191 (TYPDGTYTGRIF; listed as Homo sapiens) [compound 191] |
| +++ (50%-75% = +++) | 192 (RYSTFSEIF; listed as Homo sapiens) [compound 192] |
| +++ (50%-75% = +++) | 193 (LYLENNAQTQF; listed as Homo sapiens) [compound 193] |
| +++ (50%-75% = +++) | 194 (VYQSLSNSL; listed as Homo sapiens) [compound 194] |
| +++ (50%-75% = +++) | 195 (AYIKGGWIL; listed as Homo sapiens) [compound 195] |
| ++++ (>=75% = ++++) | 196 (GYIRGSWQF; listed as Homo sapiens) [compound 196] |
| ++++ (>=75% = ++++) | 197 (IFTDIFHYL; listed as Homo sapiens) [compound 197] |
| ++ (20%-49% = ++) | 198 (DYVGFTLKI; listed as Homo sapiens) [compound 198] |
| +++ (50%-75% = +++) | 199 (SYLNHLNNL; listed as Homo sapiens) [compound 199] |
